In paper PMC12431657, “Discovery and mechanistic insights of dibenzoylmethane as a broad spectrum inhibitor of coronavirus” (PLOS Pathogens, 2025):
Several values for one entry are separate records, joined by “and”; a condition that tells them apart may be missing. Identical values can stand only once. Like-named read-outs stand apart in the source and are kept apart here.

Columns and labels:
HCoV-229E [1] = assay: Antiviral activity in vitro, viral RNA copies by qRT-PCR, HCoV-229E in Huh-7 cells; type: cell-based; settings: for EC50 (229E, Huh-7): inhibition at the concentration: replicates
HCoV-229E [2] = assay: Antiviral activity in vitro, qRT-PCR, HCoV-229E in MRC-5 cells; type: cell-based; settings: for HCoV-229E, MRC-5: inhibition at the concentration (Fig2B): replicates
HCoV-OC43 [3] = assay: Antiviral activity in vitro, qRT-PCR, HCoV-OC43 in Huh-7 cells; type: cell-based; settings: for HCoV-OC43, Huh-7: inhibition at the concentration (Fig2B): replicates
HCoV-OC43 spike protein = assay: Cell-cell fusion assay (HCoV-OC43 spike); type: cell-based; settings: spike-transfected 293T cells with RD cells
Description: To obtain further insight into the stage at which DBM inhibits the replication of HCoV-OC43 and other HCoVs, RD cells were incubated with compounds, including DBM, remdesivir (RDV), and chloroquine (CQ), at different stages of viral infection. Viral RNA from the supernatant was extracted and quantitatively analysed via qRT-PCR. […] For the viral binding assay, cells were cultured in the presence or absence of DBM at different concentrations for 1 hour before being infected with HCoV-OC43 at an MOI of 50, and then were placed on ice for 2 hours for the viral particles to bind to the membrane of the host cells, followed by washing with PBS. […] In addition to binding to receptors from host cells, the spike proteins of HCoV-OC43 could also trigger membrane fusion when HCoV-OC43 spike plasmid-transfected 293T cells were seeded together with RD cells as target cells, and the addition of DBM had no effect on this process (S5C Fig). To examine whether DBM inhibits viral internalisation, cells were inoculated with HCoV-OC43 for 1 hour on ice before being treated with either DBM or DMSO, and CQ was included to prevent endosomal acidification. […] To determine whether DBM influences viral release, we quantified viral RNA both intracellularly and in the supernatant. […]

Huh-7 cells = type: cell-based
HCoV-OC43 [4] = type: cell-based
HCoV-OC43 [5] = assay: Cytokine gene expression in brains and spinal cords of infected mice; type: in vivo, BALB/c suckling mice; settings: for CCL2 gene expression / CXCL10 gene expression / IL1B gene expression / IL6 gene expression / TNF gene expression: one value per animal
HCoV-OC43 [6] = settings: DBM 400 mpk QD
[7] = 1% DBM in the diet, mice; cited from earlier work

O=C(CC(=O)c1ccccc1)c1ccccc1 [DBM, dibenzoylmethane]
EC50 (HCoV-229E [1]; Human coronavirus 229E, Huh-7, 24 h, read-out: EC50 HCoV-229E (Huh-7)): 6710 nM | EC50 (229E, Huh-7): inhibition at the concentration (HCoV-229E [1]; conc. 0.1 (unit not given)): 60.8 and 22.3 and 20.2 | EC50 (229E, Huh-7): inhibition at the concentration (HCoV-229E [1]; conc. 0.2 (unit not given)): 25.5 and 35.2 | EC50 (229E, Huh-7): inhibition at the concentration (HCoV-229E [1]; conc. 0.7 (unit not given)): 37.7 and 44.1 | EC50 (229E, Huh-7): inhibition at the concentration (HCoV-229E [1]; conc. 2.2 (unit not given)): 13.1 and 6.1 and 18.7 | EC50 (229E, Huh-7): inhibition at the concentration (HCoV-229E [1]; conc. 6.7 (unit not given)): 65 and 69.4 and 38.7 | EC50 (229E, Huh-7): inhibition at the concentration (HCoV-229E [1]; conc. 20 (unit not given)): 91.1 and 94.4 and 99.5 | EC50 (HCoV-229E [2]; Human coronavirus 229E, MRC5, 24 h, read-out: EC50 HCoV-229E (MRC-5)): 700 nM | HCoV-229E, MRC-5: inhibition at the concentration (Fig2B) (HCoV-229E [2]; conc. 0.1 (unit not given)): 0.8 and 1.1 and 0.3 | HCoV-229E, MRC-5: inhibition at the concentration (Fig2B) (HCoV-229E [2]; conc. 0.2 (unit not given)): 1.4 and -2.2 and 0.6 | HCoV-229E, MRC-5: inhibition at the concentration (Fig2B) (HCoV-229E [2]; conc. 0.7 (unit not given)): 17.4 and 32.7 and 56.6 | HCoV-229E, MRC-5: inhibition at the concentration (Fig2B) (HCoV-229E [2]; conc. 2.2 (unit not given)): 69.7 and 42.7 and 53.8 | HCoV-229E, MRC-5: inhibition at the concentration (Fig2B) (HCoV-229E [2]; conc. 6.7 (unit not given)): 86.0 and 92.7 and 89.8 | HCoV-229E, MRC-5: inhibition at the concentration (Fig2B) (HCoV-229E [2]; conc. 20.0 (unit not given)): 94.3 and 95.3 and 95.9 | EC50 (HCoV-OC43 [3]; Betacoronavirus 1, OC43, Huh-7, 24 h, read-out: EC50 HCoV-OC43 (Huh-7)): 90 nM | HCoV-OC43, Huh-7: inhibition at the concentration (Fig2B) (HCoV-OC43 [3]; conc. 0.1 (unit not given)): 51.3 and 53.7 and 47.2 | HCoV-OC43, Huh-7: inhibition at the concentration (Fig2B) (HCoV-OC43 [3]; conc. 0.2 (unit not given)): 64.6 and 65.3 and 60.0 | HCoV-OC43, Huh-7: inhibition at the concentration (Fig2B) (HCoV-OC43 [3]; conc. 0.7 (unit not given)): 95.4 and 95.1 and 94.4 | HCoV-OC43, Huh-7: inhibition at the concentration (Fig2B) (HCoV-OC43 [3]; conc. 2.2 (unit not given)): 98.2 (2×) and 98.0 | HCoV-OC43, Huh-7: inhibition at the concentration (Fig2B) (HCoV-OC43 [3]; conc. 6.7 (unit not given)): 98.4 | HCoV-OC43, Huh-7: inhibition at the concentration (Fig2B) (HCoV-OC43 [3]; conc. 20.0 (unit not given)): 98.3 (2×) and 98.5 | spike-triggered membrane fusion (HCoV-OC43 spike protein): had no effect | treated/untreated (Huh-7 cells): 1.279 and 1.276 and 1.31 and 1.204 and 1.484 | antiviral activity in CASP6 knockout cell pools (HCoV-OC43 [4]; RD cells): decreased | Viral inhibition (Fig5K) (HCoV-OC43 [4]; concentration 2, RD-CASP6 KO cells): 35.0 and 37.4 and 35.2 | Viral inhibition (Fig5K) (HCoV-OC43 [4]; concentration 2, RD-Scramble cells): 87.9 and 90.6 and 92.3 | Viral inhibition (Fig5K) (HCoV-OC43 [4]; concentration 20, RD-Scramble cells): 81.0 and 81.9 and 83.3 | CCL2 gene expression (HCoV-OC43 [5]; BRAIN, DBM 100 mpk): 1.51 and 1.54 and 1.00 and 1.20 and 1.62 and 1.74 | CXCL10 gene expression (HCoV-OC43 [5]; BRAIN, DBM 100 mpk): 2.90 and 3.33 (2×) and 2.35 and 2.81 and 3.27 | IL1B gene expression (HCoV-OC43 [5]; BRAIN, DBM 100 mpk): 1.23 and 1.14 (2×) and 0.87 and 0.89 and 1.66 | IL6 gene expression (HCoV-OC43 [5]; BRAIN, DBM 100 mpk): 0.95 and 1.15 and 0.67 and 0.94 and 1.52 and 1.33 | TNF gene expression (HCoV-OC43 [5]; BRAIN, DBM 100 mpk): 1.36 (2×) and 0.92 and 0.88 and 1.72 and 1.28 | CCL2 gene expression (HCoV-OC43 [5]; BRAIN, DBM 200 mpk): 1.46 and -0.88 and 0.68 and 1.08 and 1.88 | CXCL10 gene expression (HCoV-OC43 [5]; BRAIN, DBM 200 mpk): 3.15 and -0.32 and 2.05 and 2.44 and 3.30 | IL1B gene expression (HCoV-OC43 [5]; BRAIN, DBM 200 mpk): 1.27 and -1.00 and 0.43 and 0.66 and 1.46 | IL6 gene expression (HCoV-OC43 [5]; BRAIN, DBM 200 mpk): 1.26 and -0.71 and 0.30 and 0.34 and 1.23 | TNF gene expression (HCoV-OC43 [5]; BRAIN, DBM 200 mpk): 1.14 and -1.10 and 0.49 and 0.84 and 1.31 | CCL2 gene expression (HCoV-OC43 [5]; BRAIN, DBM 500 mpk): 1.19 and 0.29 and 0.89 and 1.43 | CXCL10 gene expression (HCoV-OC43 [5]; BRAIN, DBM 500 mpk): 2.39 and 1.30 and 1.07 and 2.91 | IL1B gene expression (HCoV-OC43 [5]; BRAIN, DBM 500 mpk): 1.46 and 0.54 and 0.85 and 1.71 | IL6 gene expression (HCoV-OC43 [5]; BRAIN, DBM 500 mpk): 0.93 and 0.71 and 0.92 and 1.17 | TNF gene expression (HCoV-OC43 [5]; BRAIN, DBM 500 mpk): 1.05 and 0.22 and 0.74 and 1.31 | inflammation (cytokine gene expression) in the brain and spinal cord (HCoV-OC43 [5]; CCL2, CXCL10, IL-1β, IL-6, TNF-α, 5 dpi): dramatically reduced inflammation | CCL2 gene expression (HCoV-OC43 [5]; SPINAL CORD, DBM 100 mpk): 0.10 and -0.50 and -0.53 and -0.21 and -0.06 and -0.89 | CXCL10 gene expression (HCoV-OC43 [5]; SPINAL CORD, DBM 100 mpk): 2.03 and 1.48 and 0.34 and 0.55 and 1.02 and 0.66 | IL1B gene expression (HCoV-OC43 [5]; SPINAL CORD, DBM 100 mpk): -0.76 and -1.28 and -0.98 and -0.97 and -0.64 and -1.78 | IL6 gene expression (HCoV-OC43 [5]; SPINAL CORD, DBM 100 mpk): 1.39 and -0.72 and 0.41 and 1.02 and 0.87 and 0.47 | TNF gene expression (HCoV-OC43 [5]; SPINAL CORD, DBM 100 mpk): 0.47 and -0.10 and -0.18 and 0.26 and 0.80 and -0.63 | CCL2 gene expression (HCoV-OC43 [5]; SPINAL CORD, DBM 200 mpk): -0.12 and -1.42 and -0.38 and -0.65 and 0.03 | CXCL10 gene expression (HCoV-OC43 [5]; SPINAL CORD, DBM 200 mpk): 1.47 and -1.58 and 0.55 and 0.23 and 1.42 | IL1B gene expression (HCoV-OC43 [5]; SPINAL CORD, DBM 200 mpk): -0.83 and -1.94 and -0.93 and -0.47 and -0.26 | IL6 gene expression (HCoV-OC43 [5]; SPINAL CORD, DBM 200 mpk): 0.59 and -0.46 and 0.79 and 0.02 and 0.49 | TNF gene expression (HCoV-OC43 [5]; SPINAL CORD, DBM 200 mpk): -0.40 and -0.33 and -1.12 and -0.23 and 0.63 | CCL2 gene expression (HCoV-OC43 [5]; SPINAL CORD, DBM 500 mpk): 2.46 and 1.15 and -0.63 and 0.95 | CXCL10 gene expression (HCoV-OC43 [5]; SPINAL CORD, DBM 500 mpk): 3.10 and 2.34 and 0.15 and 1.92 | IL1B gene expression (HCoV-OC43 [5]; SPINAL CORD, DBM 500 mpk): 2.44 and 0.22 and -1.51 and 0.43 | IL6 gene expression (HCoV-OC43 [5]; SPINAL CORD, DBM 500 mpk): 3.07 and 2.18 and -0.81 and 1.64 | TNF gene expression (HCoV-OC43 [5]; SPINAL CORD, DBM 500 mpk): 3.77 and 1.80 and -0.57 and 1.44 | body weight loss during the experiment (HCoV-OC43 [6]; VV116 25 mpk QD): did not show any body weight loss | viral copy numbers in the brain, lungs, and kidneys compared with the vehicle group (HCoV-OC43 [6]; 5 days post infection): significantly fewer viral copy numbers | viral load in the brains lower than in the vehicle group (HCoV-OC43 [6]; Day 5): approximately 6 logs | safety of feeding in the diet [7]: safe
